Measured values as given in PubChem BioAssay (NCI).
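Five concentrations, 48 hours, 96-well plates. The concentration for 50% growth inhibition is given as GI50. TGI is the concentration that stops growth completely.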

Experiments:
Assay in all cases: NCI anticancer screen, dose series, 48 h
786-0 renal = test system: 786-0 renal
A549 NSCLC = test system: A549 NSCLC
ACHN renal = test system: ACHN renal
CCRF-CEM leukemia = test system: CCRF-CEM leukemia
COLO 205 colon = test system: COLO 205 colon
DLD-1 colon = test system: DLD-1 colon
DMS 114 small cell lung = test system: DMS 114 small cell lung
DMS 273 small cell lung = test system: DMS 273 small cell lung
HCC-2998 colon = test system: HCC-2998 colon
HCT-116 colon = test system: HCT-116 colon
HCT-15 colon = test system: HCT-15 colon
HL-60(TB) leukemia = test system: HL-60(TB) leukemia
HOP-18 NSCLC = test system: HOP-18 NSCLC
HOP-62 NSCLC = test system: HOP-62 NSCLC
HOP-92 NSCLC = test system: HOP-92 NSCLC
HT29 colon = test system: HT29 colon
IGROV1 ovarian = test system: IGROV1 ovarian
K-562 leukemia = test system: K-562 leukemia
KM12 colon = test system: KM12 colon
KM20L2 colon = test system: KM20L2 colon
LOX IMVI melanoma = test system: LOX IMVI melanoma
LXFL 529 NSCLC = test system: LXFL 529 NSCLC
M14 melanoma = test system: M14 melanoma
M19-MEL melanoma = test system: M19-MEL melanoma
MALME-3M melanoma = test system: MALME-3M melanoma
NCI-H226 lung = test system: NCI-H226 lung
NCI-H460 lung = test system: NCI-H460 lung
NCI-H522 lung = test system: NCI-H522 lung
OVCAR-3 ovarian = test system: OVCAR-3 ovarian
OVCAR-4 ovarian = test system: OVCAR-4 ovarian
OVCAR-5 ovarian = test system: OVCAR-5 ovarian
OVCAR-8 ovarian = test system: OVCAR-8 ovarian
RPMI-8226 leukemia = test system: RPMI-8226 leukemia
RXF 393 renal = test system: RXF 393 renal
SF-268 CNS = test system: SF-268 CNS
SF-539 CNS = test system: SF-539 CNS
SK-MEL-2 melanoma = test system: SK-MEL-2 melanoma
SK-MEL-28 melanoma = test system: SK-MEL-28 melanoma
SK-MEL-5 melanoma = test system: SK-MEL-5 melanoma
SK-OV-3 ovarian = test system: SK-OV-3 ovarian
SN12C renal = test system: SN12C renal
SNB-19 CNS = test system: SNB-19 CNS
SNB-78 CNS = test system: SNB-78 CNS
SR leukemia = test system: SR leukemia
SW-620 colon = test system: SW-620 colon
TK-10 renal = test system: TK-10 renal
U251 CNS = test system: U251 CNS
UACC-62 melanoma = test system: UACC-62 melanoma
UO-31 renal = test system: UO-31 renal
XF 498 CNS = test system: XF 498 CNS

Compound `COc1cc(C)cc2c1[nH]c1ccccc12` has a GI50 (786-0 renal) of 9.37 µM, a TGI (786-0 renal) greater than 25 µM and a TGI (A549 NSCLC) greater than 25 µM. The GI50 (ACHN renal) was 23.4 µM, the TGI (ACHN renal) was greater than 25 µM and the GI50 (CCRF-CEM leukemia) was 15.4 µM. It also gave a TGI (CCRF-CEM leukemia) greater than 25 µM, a GI50 (COLO 205 colon) of 12.4 µM and a TGI (COLO 205 colon) greater than 25 µM. It also gave a GI50 (DLD-1 colon) of 10.5 µM, a TGI (DLD-1 colon) greater than 25 µM and a TGI (DMS 114 small cell lung) greater than 25 µM. The GI50 (DMS 273 small cell lung) was 7.73 µM, the TGI (DMS 273 small cell lung) was greater than 25 µM and the GI50 (HCC-2998 colon) was 14.9 µM. It also gave a TGI (HCC-2998 colon) greater than 25 µM, a GI50 (HCT-116 colon) of 11.4 µM and a TGI (HCT-116 colon) greater than 25 µM. It also gave a GI50 (HCT-15 colon) of 7.45 µM, a TGI (HCT-15 colon) greater than 25 µM and a GI50 (HL-60(TB) leukemia) of 6.88 µM. The TGI (HL-60(TB) leukemia) was greater than 25 µM, the GI50 (HOP-18 NSCLC) was 290 nM and the TGI (HOP-18 NSCLC) was 12.7 µM. For the same compound, the TGI (HOP-62 NSCLC) was 18.6 µM, the GI50 (HOP-92 NSCLC) was 23.5 µM and the TGI (HOP-92 NSCLC) was greater than 25 µM. For the same compound, the GI50 (HT29 colon) was 7.78 µM, the TGI (HT29 colon) was greater than 25 µM and the GI50 (IGROV1 ovarian) was 14.8 µM. The TGI (IGROV1 ovarian) was greater than 25 µM, the TGI (K-562 leukemia) was greater than 25 µM and the GI50 (KM12 colon) was 8.12 µM. It also gave a TGI (KM12 colon) greater than 25 µM, a GI50 (KM20L2 colon) of 7.53 µM and a TGI (KM20L2 colon) of 19.6 µM. For the same compound, the GI50 (LOX IMVI melanoma) was 12.7 µM, the TGI (LOX IMVI melanoma) was greater than 25 µM and the GI50 (LXFL 529 NSCLC) was 18.3 µM. It also gave a TGI (LXFL 529 NSCLC) greater than 25 µM, a GI50 (M14 melanoma) of 7.24 µM and a TGI (M14 melanoma) of 22.1 µM. The GI50 (M19-MEL melanoma) was 18.3 µM, the TGI (M19-MEL melanoma) was greater than 25 µM and the GI50 (MALME-3M melanoma) was 8.11 µM. For the same compound, the TGI (MALME-3M melanoma) was greater than 25 µM, the GI50 (NCI-H226 lung) was 8.44 µM and the TGI (NCI-H226 lung) was greater than 25 µM. For the same compound, the GI50 (NCI-H460 lung) was 7.83 µM, the TGI (NCI-H460 lung) was greater than 25 µM and the GI50 (NCI-H522 lung) was 4.24 µM. For the same compound, the TGI (NCI-H522 lung) was 13.3 µM, the TGI (OVCAR-3 ovarian) was greater than 25 µM and the TGI (OVCAR-4 ovarian) was greater than 25 µM. It also gave a TGI (OVCAR-5 ovarian) greater than 25 µM, a TGI (OVCAR-8 ovarian) of 23.9 µM and a TGI (RPMI-8226 leukemia) greater than 25 µM. The TGI (RXF 393 renal) was 22.5 µM, the GI50 (SF-268 CNS) was 14.3 µM and the TGI (SF-268 CNS) was greater than 25 µM. It also gave a GI50 (SF-539 CNS) of 6.01 µM, a TGI (SF-539 CNS) of 14.5 µM and a GI50 (SK-MEL-2 melanoma) of 7.33 µM. It also gave a TGI (SK-MEL-2 melanoma) greater than 25 µM, a GI50 (SK-MEL-28 melanoma) of 16.3 µM and a TGI (SK-MEL-28 melanoma) greater than 25 µM. The GI50 (SK-MEL-5 melanoma) was 9.19 µM, the TGI (SK-MEL-5 melanoma) was greater than 25 µM and the GI50 (SK-OV-3 ovarian) was 20.9 µM. The TGI (SK-OV-3 ovarian) was greater than 25 µM, the GI50 (SN12C renal) was 14.1 µM and the TGI (SN12C renal) was greater than 25 µM. The TGI (SNB-19 CNS) was greater than 25 µM, the TGI (SNB-78 CNS) was greater than 25 µM and the GI50 (SR leukemia) was 10.3 µM. It also gave a TGI (SR leukemia) greater than 25 µM, a GI50 (SW-620 colon) of 8.35 µM and a TGI (SW-620 colon) greater than 25 µM. It also gave a TGI (TK-10 renal) greater than 25 µM, a GI50 (U251 CNS) of 10.4 µM and a TGI (U251 CNS) greater than 25 µM. It also gave a GI50 (UACC-62 melanoma) of 15 µM, a TGI (UACC-62 melanoma) greater than 25 µM and a GI50 (UO-31 renal) of 15 µM. For the same compound, the TGI (UO-31 renal) was greater than 25 µM, the GI50 (XF 498 CNS) was 22.6 µM and the TGI (XF 498 CNS) was greater than 25 µM.
